Measured values from ChEMBL document CHEMBL1201862, “PubChem BioAssay data set” (2004).
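The compound was tested at five concentrations on cells cultured in 96-well plates, with a 48-hour exposure period. Abbreviation: GI50, concentration required for 50% inhibition of growth.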 Activity calls are given as the source filed them. Rule as the data show it: active = GI50 up to about 1.1 µM and inactive = higher.

How the values were obtained:
Test in all cases: NCI anticancer screen, dose series, 48 h
[1] = test system: HOP-62
[2] = test system: CAKI-1
[3] = test system: OVCAR-4
[4] = test system: NCI/ADR-RES
[5] = test system: OVCAR-5
[6] = test system: COLO 205
[7] = test system: SK-MEL-28
[8] = test system: K562
[9] = test system: MDA-N
[10] = test system: SK-MEL-2
[11] = test system: Malme-3M
[12] = test system: M14
[13] = test system: NCI-H460
[14] = test system: MOLT-4
[15] = test system: EKVX
[16] = test system: SF-268
[17] = test system: SW-620
[18] = test system: SK-OV-3
[19] = test system: T47D
[20] = test system: Hs-578T

| Compound | GI50 [1] | GI50 [2] | GI50 [3] | GI50 [4] | GI50 [5] | GI50 [6] | GI50 [7] | GI50 [8] | GI50 [9] | GI50 [10] | GI50 [11] | GI50 [12] | GI50 [13] | GI50 [14] | GI50 [15] | GI50 [16] | GI50 [17] | GI50 [18] | GI50 [19] | GI50 [20] |
| --- | --- | --- | --- | --- | --- | --- | --- | --- | --- | --- | --- | --- | --- | --- | --- | --- | --- | --- | --- | --- |
| COC(=O)CC1(O)C=CC(=O)C=C1 [JACARANONE] | 6.76 µM (inactive) | 3.83 µM (inactive) | 3.82 µM (inactive) | 3.63 µM (inactive) | 8.99 µM (inactive) | 4.68 µM (inactive) | 2.38 µM (inactive) | 3.76 µM (inactive) | 6.35 µM (inactive) | 4.63 µM (inactive) | 2.81 µM (inactive) | 4.18 µM (inactive) | 2.2 µM (inactive) | 1.05 µM (active) | 4.02 µM (inactive) | 3.18 µM (inactive) | 4.76 µM (inactive) | 14.1 µM (inactive) | 5.42 µM (inactive) | 8.55 µM (inactive) |
| COc1ccc2c3c1OC1C(=O)C=CC4(CC2)N(C)CCC314 (stereo not given) | 29.6 µM (inactive) | 20.1 µM (inactive) | 24 µM (inactive) | 22.9 µM (inactive) | 29.5 µM (inactive) | 6.19 µM (inactive) | 22.2 µM (inactive) | 12.2 µM (inactive) | 15.8 µM (inactive) | 16.3 µM (inactive) | 35.1 µM (inactive) | 16.6 µM (inactive) | 16.6 µM (inactive) | 12.8 µM (inactive) | 19.6 µM (inactive) | 19.3 µM (inactive) | 14.2 µM (inactive) | 36.4 µM (inactive) | 19.4 µM (inactive) | 19.3 µM (inactive) |
| Cc1c2ccncc2c(C)c2c1sc1ccccc12 | 7.38 µM (inactive) | 7.45 µM (inactive) | 14.3 µM (inactive) | 7.08 µM (inactive) | 21 µM (inactive) | 12.3 µM (inactive) | 13.3 µM (inactive) | 6.5 µM (inactive) | 13.1 µM (inactive) | 21 µM (inactive) | 10.8 µM (inactive) | 11.6 µM (inactive) | 2.31 µM (inactive) | 2.33 µM (inactive) | 4.75 µM (inactive) | 11.3 µM (inactive) | 7.06 µM (inactive) | 13.1 µM (inactive) | 13.1 µM (inactive) | 13.6 µM (inactive) |
| Nc1cc(-c2ccc(Cl)cc2)nn1-c1nc2ccccc2nc1-c1ccccc1 | 49 µM (inactive) | > 100 µM (inactive) | 56.8 µM (inactive) | > 100 µM (inactive) | > 100 µM (inactive) | > 100 µM (inactive) | 79.4 µM (inactive) | > 100 µM (inactive) | > 100 µM (inactive) | 59.7 µM (inactive) | 50.9 µM (inactive) | > 100 µM (inactive) | > 100 µM (inactive) | 8.02 µM (inactive) | > 100 µM (inactive) | > 100 µM (inactive) | > 100 µM (inactive) | > 100 µM (inactive) | 13.3 µM (inactive) | 70.5 µM (inactive) |
| O=[N+]([O-])c1ccc(NC(=S)Nc2ccccn2)cc1 | 17.3 µM (inactive) | 5.11 µM (inactive) | 37.5 µM (inactive) | 33.4 µM (inactive) | 27.7 µM (inactive) | 18.5 µM (inactive) | > 95.3 µM (inactive) | > 69.2 µM (inactive) | 91.8 µM (inactive) | > 53.1 µM (inactive) | 72.9 µM (inactive) | 46.8 µM (inactive) | 23.3 µM (inactive) | 16.9 µM (inactive) | 8.45 µM (inactive) | 26.9 µM (inactive) | 40.3 µM (inactive) | 47 µM (inactive) | 35.7 µM (inactive) | 13.8 µM (inactive) |
| C=CCOC(=O)C1=C(C)N=C2N[C@H](CCCCCCCCC)C[C@@H]3CCC1N23 (stereo not given in full) | 30.5 µM (inactive) | 34 µM (inactive) | 21 µM (inactive) | 22.8 µM (inactive) | 22.7 µM (inactive) | 21.3 µM (inactive) | 21.7 µM (inactive) | 30.3 µM (inactive) | 18.4 µM (inactive) | 19.8 µM (inactive) | 17.3 µM (inactive) | 18.7 µM (inactive) | 25.4 µM (inactive) | 30.1 µM (inactive) | 22.4 µM (inactive) | 19.3 µM (inactive) | 28.7 µM (inactive) | 27.5 µM (inactive) | 23.2 µM (inactive) | 21.5 µM (inactive) |
| CCN(CC)CC1CCCCN1CC(=O)N1c2ccccc2NC(=O)CC1C (stereo not given) | > 100 µM (inactive) | > 100 µM (inactive) | > 100 µM (inactive) | > 100 µM (inactive) | > 100 µM (inactive) | > 100 µM (inactive) | > 100 µM (inactive) | > 100 µM (inactive) | > 100 µM (inactive) | > 100 µM (inactive) | > 100 µM (inactive) | > 100 µM (inactive) | > 100 µM (inactive) | > 100 µM (inactive) | > 100 µM (inactive) | > 100 µM (inactive) | > 100 µM (inactive) | > 100 µM (inactive) | > 100 µM (inactive) | > 100 µM (inactive) |
| Oc1ccc(Cc2nccc3cc(O)c(O)cc23)cc1O | 47.4 µM (inactive) | 58.3 µM (inactive) | 41.6 µM (inactive) | > 100 µM (inactive) | 48.9 µM (inactive) | 21.6 µM (inactive) | 79.8 µM (inactive) | 26.8 µM (inactive) | 58.2 µM (inactive) | 49.7 µM (inactive) | > 100 µM (inactive) | 26.6 µM (inactive) | 29.6 µM (inactive) | 22.3 µM (inactive) | 26.5 µM (inactive) | 51.9 µM (inactive) | 36.1 µM (inactive) | 66.8 µM (inactive) | 30.4 µM (inactive) | > 100 µM (inactive) |
| CCOC(=O)/C=C(/C(=O)OCC)n1cnc2c(=O)[nH]c(NC(C)=O)nc21 | > 100 µM (inactive) | > 100 µM (inactive) | > 100 µM (inactive) | > 100 µM (inactive) | > 100 µM (inactive) | > 100 µM (inactive) | > 100 µM (inactive) | > 100 µM (inactive) | > 100 µM (inactive) | > 100 µM (inactive) | > 100 µM (inactive) | > 100 µM (inactive) | > 100 µM (inactive) | > 100 µM (inactive) | > 100 µM (inactive) | > 100 µM (inactive) | > 100 µM (inactive) | > 100 µM (inactive) | > 100 µM (inactive) | > 100 µM (inactive) |
| CC1=C2C(=O)c3ccccc3C(=O)[C@H]2C[C@@H](N2CCCCCC2=O)O1 | 19 µM (inactive) | 16.9 µM (inactive) | 17.2 µM (inactive) | 22.3 µM (inactive) | 16.7 µM (inactive) | 17.3 µM (inactive) | 18.7 µM (inactive) | 19.8 µM (inactive) | 16 µM (inactive) | 23.1 µM (inactive) | 12.9 µM (inactive) | 15.4 µM (inactive) | 18.8 µM (inactive) | 14.7 µM (inactive) | 23.1 µM (inactive) | 20.9 µM (inactive) | 17.3 µM (inactive) | 27.5 µM (inactive) | 20.8 µM (inactive) | 30.5 µM (inactive) |
| O=S(=O)(c1ccccc1)c1ccc(/N=N/O)nc1 | > 100 µM (inactive) | > 100 µM (inactive) | > 100 µM (inactive) | > 100 µM (inactive) | > 100 µM (inactive) | > 100 µM (inactive) | > 100 µM (inactive) | > 100 µM (inactive) | > 100 µM (inactive) | > 100 µM (inactive) | > 100 µM (inactive) | > 100 µM (inactive) | > 100 µM (inactive) | 22.4 µM (inactive) | > 100 µM (inactive) | > 100 µM (inactive) | > 100 µM (inactive) | > 100 µM (inactive) | > 100 µM (inactive) | > 100 µM (inactive) |
| c1ccc(C2=NC3OC2c2ccccc23)cc1 (stereo not given) | > 10 µM (inactive) | > 10 µM (inactive) | > 10 µM (inactive) | > 10 µM (inactive) | > 10 µM (inactive) | > 10 µM (inactive) | > 10 µM (inactive) | > 10 µM (inactive) | > 10 µM (inactive) | > 10 µM (inactive) | > 10 µM (inactive) | > 10 µM (inactive) | > 10 µM (inactive) | > 10 µM (inactive) | > 10 µM (inactive) | > 10 µM (inactive) | > 10 µM (inactive) | > 10 µM (inactive) | > 10 µM (inactive) | > 10 µM (inactive) |
| O=S(=O)(O)n1ccnc1 | > 100 µM (inactive) | > 100 µM (inactive) | > 100 µM (inactive) | > 100 µM (inactive) | > 100 µM (inactive) | > 100 µM (inactive) | > 100 µM (inactive) | > 100 µM (inactive) | > 100 µM (inactive) | 77.3 µM (inactive) | > 100 µM (inactive) | > 100 µM (inactive) | > 100 µM (inactive) | > 100 µM (inactive) | > 100 µM (inactive) | > 100 µM (inactive) | > 100 µM (inactive) | > 100 µM (inactive) | > 100 µM (inactive) | > 100 µM (inactive) |
| COc1cc(/C=C2\CC3C4CC[C@H]5C[C@@H](O)CC[C@]5(C)C4CC[C@]3(C)C2=O)cc(OC)c1OC (stereo not given in full) | 13 µM (inactive) | 9.4 µM (inactive) | 4.61 µM (inactive) | 16.7 µM (inactive) | 27 µM (inactive) | 5.93 µM (inactive) | 32.7 µM (inactive) | 4.68 µM (inactive) | 19.9 µM (inactive) | 14.9 µM (inactive) | 19.5 µM (inactive) | 17.4 µM (inactive) | 10.7 µM (inactive) | 4.82 µM (inactive) | 12 µM (inactive) | 24 µM (inactive) | 24.8 µM (inactive) | 11.5 µM (inactive) | 3.7 µM (inactive) | 14.4 µM (inactive) |
